In patent publication US20250345295A1, “LMK235 COMPOSITIONS AND METHODS” (UNM Rainforest Innovations, priority 2024, published 2025):
“And” between values parts separate entries of the source, which are not always exact repeats. Equal values may be shown once.

Tested on: differentially expressed genes in TG
Assay: RNAseq gene expression profiling of TG
Format: in vivo, mouse
Settings: TG RNAseq
Method: Gene expression profiling was performed on TG from mice with/without nerve injury during the acute phase (three weeks post injury) in TIC mice and after transition to chronic pain (10 weeks post injury) in FRICT-ION mice by Quick Biology Inc. (Monrovia, CA).
Total RNA from ipsilateral TG was isolated using the Rneasy Mini Kit (Qiagen, Valencia, CA). Gene expression profiling and analysis with RNA was done by Quick Biology Inc. (Monrovia, CA). RNAseq library preparation was performed by Quick Biology Inc. (Monrovia, CA), sequencing was performed using an Illumina HiSeq 4000 at 40 million reads per sample. The reads were first mapped to the latest UCSC transcript set using Bowtie2 version 2.1.0 and the gene expression level was estimated using RSEM v1.2.15. Differentially expressed genes were identified using the edgeR program. Genes showing altered expression with p<0.05 were considered differentially expressed.

[1] = LMK235-treated vs untreated FRICT-ION mice
[2] = male FRICT-ION mice treated with LMK235 vs Vehicle, week 10

SMILES: Cc1cc(C)cc(C(=O)NOCCCCCC(=O)NO)c1 [LMK235, N-[[6-(Hydroxyamino)-6-oxohexyl]oxy]-3,5-dimethyl-benzamide]
- Nav3 downregulated, fold [1]: 1.19 fold
- Net1 upregulated, fold [1]: 1.12 fold
- Neurod4 upregulated, fold [1]: 1.57 fold
- Nf2 upregulated, fold [1]: 1.04 fold
- Ngef downregulated, fold [1]: 1.34 fold
- Nkain2 downregulated, fold [1]: 1.14 fold
- Nova1 upregulated, fold [1]: 1.04 fold
- Nras downregulated, fold [1]: 1.03 fold
- Nrg2 upregulated, fold [1]: 1.10 fold
- Nrg3 downregulated, fold [1]: 1.00 fold
- Ntrk1 upregulated, fold [1]: 1.80 fold
- Nts downregulated, fold [1]: 1.74 fold
- Scn2a Scn2a1 downregulated, fold [1]: 1.04 fold
- Scn3a downregulated, fold [1]: 1.01 fold
- Scn7a downregulated, fold [1]: 1.07 fold
- Scn8a upregulated, fold [1]: 1.05 fold
- Scn9a upregulated, fold [1]: 1.29 fold
- Trpc6 upregulated, fold [1]: 1.08 fold
- Trpm3 upregulated, fold [1]: 1.19 fold
- Trpm4 upregulated, fold [1]: 1.05 fold
- Trpv6 downregulated, fold [1]: 1.19 fold
- Fold change 1700047I17Rik2 [2]: 3.82 fold
- Fold change 8430408G22Rik [2]: 2.46 fold
- Fold change Acta2 [2]: 2.01 fold
- Fold change Amy2a5 [2]: 2.03 fold
- Fold change Armc3 [2]: 2.04 fold
- Fold change Asb4 [2]: 1.53 fold
- Fold change C1ql2 [2]: 2.34 fold
- Fold change C1ql4 [2]: 4.76 fold
- Fold change Calcb [2]: 2.17 fold
- Fold change Ccdc153 [2]: 2.32 fold
- Fold change Cckbr [2]: −2.32 fold
- Fold change Crhbp [2]: 2.79 fold
- Fold change Cutal [2]: 2.10 fold
- Fold change Cyp26b1 [2]: 2.99 fold
- Fold change Cytl1 [2]: 2.14 fold
- Fold change Dmrt3 [2]: 2.46 fold
- Fold change Eif3j2 [2]: 3.88 fold
- Fold change Evi2a-evi2b [2]: 136.10 fold
- Fold change Fev [2]: 2.35 fold
- Fold change Gata3 [2]: 3.74 fold
- Fold change Gh [2]: −25.22 fold
- Fold change Gm833 [2]: 2.45 fold
- Fold change Gm8221 [2]: 241.23 fold
- Fold change Gm13306 [2]: 48.23 fold
- Fold change Gpx2 [2]: 3.17 fold
- Fold change Gucy2f [2]: 2.13 fold
- Fold change H19 [2]: 2.05 fold
- Fold change Hdac5 [2]: −2.03 fold
- Fold change Hist2h3c2 [2]: 128.58 fold
- Fold change Hoxb9 [2]: −16.50 fold and −16.5 fold
- Fold change Hoxc8 [2]: −8.22 fold
- Fold change Hoxd8 [2]: −4.14 fold
- Fold change Irx4 [2]: 2.51 fold
- Fold change Isl1 [2]: 2.30 fold
- Fold change Kcnmb1 [2]: 2.15 fold
- Fold change Mgl2 [2]: 2.39 fold
- Fold change Myom1 [2]: 2.01 fold
- Fold change Nkx6-3 [2]: 2.10 fold
- Fold change Onecut3 [2]: 2.22 fold
- Fold change P2rx2 [2]: −1.84 fold
- Fold change P2rx4 [2]: −2.08 fold
- Fold change Pappa2 [2]: 2.16 fold
- Fold change Pde4c [2]: 2.45 fold
- Fold change Ppp1r1c [2]: 2.51 fold
- Fold change Sec16b [2]: 1.98 fold
- Fold change Serpina3h [2]: 2.51 fold
- Fold change Shox2 [2]: 2.49 fold
- Fold change Slc6a4 [2]: 4.38 fold
- Fold change Slc18a2 [2]: 2.01 fold
- Fold change Slfn4 [2]: −2.32 fold
- Fold change Sp8 [2]: 2.42 fold
- Fold change Tmprss11d [2]: 2.98 fold
- Fold change Tph2 [2]: 4.18 fold
- Fold change Tyrp1 [2]: 3.03 fold
- Fold change Vmn2r84 [2]: 2.71 fold
- Fold change lc6a2 [2]: 2.91 fold
- Gh downregulated, fold [2]: 25.22 fold
- Hoxb9 downregulated, fold [2]: 16.50 fold
- Hoxc8 downregulated, fold [2]: 8.22 fold
- Hoxd8 downregulated, fold [2]: 4.14 fold
- P2rx4 downregulated, fold [2]: 2.08 fold
- Slfn4 downregulated, fold [2]: 2.32 fold
